Experimental data published in patent publication US11865096B2, “Oils with anti-inflammatory activity containing natural specialized proresolving mediators and their precursors” (Solutex NA LLC, priority 2012, dated 2024).

Key:
[1] = tested on: zymosan A-induced peritoneal inflammation (inflammatory exudate cells); assay: Murine peritoneal inflammation induced by zymosan A, exudate cells by FACS; format: in vivo, mouse; conditions: 4 hours after 0.1 mg zymosan A i.p., vs vehicle
Method: With respect to 17-HDHA, it is possible that the anti-inflammatory activity of oil fraction 1 (shown in FIG. 1A) can therefore be explained, at least in part, due to the selective enrichment of this anti-inflammatory SPM precursor into this oil fraction. In order to determine the anti-inflammatory action and contribution of 17-HDHA, the anti-inflammatory effect of fraction 1 was determined in a well-known model of sterile inflammation. […] Vehicle (100 microliter sterile salive), 100 microliter oil fraction 1, or 1 microgram synthetic 17S-HDHA (Cayman Chemicals) in sterile salive was administered by gavage 30 minutes prior to intraperitoneal injection of 0.1 mg zymosan A. Oil fraction 1 analyzed here is the same as fraction number 1 shown in FIGS. 1, 2, and 3. After 4 hours, the inflammatory exudate was recovered and the changes in the number and types of inflammatory cells determined by fluorescent-activated cell sorting employing specific fluorescently-labeled antibodies. Values are mean±standard error of the mean of […] individual mice. Statistically significant differences (Student's t-test) are indicated by * (P<0,05) or # (P<0,10) for comparisons of inflammatory exudate cell numbers obtained after treatment with oil fraction 1 or compared to the vehicle-treated mice. […] This anti-inflammatory effect was reproduced by the oral administration (gavage) of 17S-HDHA.

[2] = tested on: LPS-induced inflammation (neutrophil infiltration, myeloperoxidase bioluminescence); assay: Murine subcutaneous LPS-induced inflammation, neutrophil activity by luminol bioluminescence; format: in vivo, mouse; conditions: given by gavage 30 min prior to LPS (oil fraction 100 microliter; indomethacin 10 mg/kg), vs vehicle
From the text: To evaluate the anti-inflammatory activity of distinct fatty acid-ethyl ester oil fractions obtained during supercritical fluid chromatography (SFC) for the industrial-scale manufacturing of EPA-ethyl ester and DHA-ethyl ester concentrates, a murine model of subcutaneous sterile inflammation was established which permitted measuring the effects of orally administered oil fractions on the pro-inflammatory phase of the inflammatory response. […] In order to initiate inflammation, Escherichia coli lipopolysaccharide (LPS; serotype 127:B8, purified by trichloroacetic acid extraction, Sigma-Aldrich) was injected sub-cutaneously as a single dose (5 milligram per kilogram in a 200 microliter volume of sterile […] dorsal hind flank of a mouse (CD1 mice of 9 weeks age and weighing approximately 30 grams, purchased from the Charles River company). Neutrophil infiltration into the site of inflammation was measured non-invasively by bioluminescence emitted by conversion of luminol by the neutrophil enzyme myeloperoxidase (Gross, 2009), permitting assessment of inflammatory changes over a 6 hour time period. […]

[3] = gavage 30 min prior (100 microliter oil fraction or 1 microgram 17S-HDHA)

Structure (SMILES)	number of polymorphonuclear leukocytes (PMN) in exudate [1, 3]	total number of exudate cells [1, 3]	monocytes, macrophages or lymphocytes in exudate ([1]; gavage 30 min prior)	reduction of LPS-induced inflammation ([2]; 3 hours after LPS s.c.) [%]	reduction of LPS-induced inflammation ([2]; 6 hours after LPS s.c.) [%]
CC/C=C\C[C@H](O)/C=C/C=C\C/C=C\C/C=C\C/C=C\CCC(=O)O [17S-HDHA, 17S-hydroxy-docosa-4Z,7Z,10Z,13Z,15E,19Z-hexaenoic acid]	reproduced	reproduced	No statistically significant changes	–	–
COc1ccc2c(c1)c(CC(=O)O)c(C)n2C(=O)c1ccc(Cl)cc1 [indomethacin]	–	–	–	26	44
